Data taken from paper PMC11844072, “Novel 5,6-dichlorobenzimidazole derivatives as dual BRAFWT and BRAFV600E inhibitors: design, synthesis, anti-cancer activity and molecular dynamics simulations” (BMC Chemistry, 2025).

Columns and labels:
Test in all cases: NCI 5-dose assay
Type in all cases: cell-based
786-0 = settings: Homo sapiens; 786-0, Renal cancer
Experimental: (§1) The synthesized dichlorobenzimidazoles 10a–p were assayed for their influence on divers cancer cell lines according to the method presented in the Additional file A.
(§2) 5. Screening of cytotoxic activity against a panel of sixty human tumor cell lines
(§3) The selected compounds by NCI were evaluated for their anticancer activity in a two-stage process. First, these compounds were screened against the full NCI 60 cell lines panel at a single high dose of 10 µM. Then, the output from the single dose screen is reported as a mean graph. […]
(§4) at five different minimal concentrations.
(§5) Assay protocol. The human tumor cell lines of the cancer screening panel are grown in RPMI 1640 medium containing 5% fetal bovine serum and 2 mM L-glutamine. For a typical screening experiment, cells are inoculated into 96 well microtiter plates in 100 µL at plating densities ranging from 5000 to 40,000 cells/well depending on the doubling time of individual cell lines. After cell inoculation, the microtiter plates are incubated at 37 °C, 5% CO 2, 95% air and 100% relative humidity for 24 h prior to addition of the experimental drugs.
(§6) After 24 h, two plates of each cell line are fixed in situ with TCA, to represent a measurement of the cell population for each cell line at the time of drug addition (Tz). The experimental drugs are solubilized in dimethyl sulfoxide at 400-fold the desired final maximum test concentration and stored frozen prior to use. At the time of drug addition, an aliquot of frozen concentrate is thawed and diluted to twice the desired final maximum test concentration with complete medium containing 50 µg/mL gentamicin. Additional four, 10-fold or ½ log serial dilutions are made to provide a total of five drug concentrations plus control.
(§7) Aliquots of […] of these different drug dilutions are added to the appropriate microtiter wells already containing […] of medium, resulting in the required final drug concentrations.
(§8) Following drug addition, the plates are incubated for an additional 48 h at 37 °C, 5% CO 2, 95% air, and 100% relative humidity. For adherent cells, the assay is terminated by the addition of cold TCA.
(§9) Cells are fixed in situ by the gentle addition of 50 µL of cold 50% (w/v) TCA (final concentration, 10% TCA) and incubated for 60 min at 4 °C. The supernatant is discarded, and the plates are washed five times with tap water and air dried. Sulforhodamine B (SRB) solution ([…]) at 0.4% (w/v) in 1% acetic acid is added to each well, and plates are incubated for 10 min at room temperature. After staining, unbound dye is removed by washing five times with 1% acetic acid and the plates are air dried. Bound stain is subsequently solubilized with 10 mM trizma base, and the absorbance is read on an automated plate reader at a wavelength of 515 nm. For suspension cells, the methodology is […]
(§10) the same except that the assay is terminated by fixing settled cells at the bottom of the wells by gently adding 50 µl of 80% TCA (final concentration, 16% TCA). Using the seven absorbance measurements [time zero, (Tz), control growth, (C), and test growth in the presence of drug at the five concentration levels (Ti)], the percentage growth is calculated at each of the drug concentrations […]
(§11) Percentage growth inhibition is calculated as: [(Ti Tz)/(C–Tz)] x 100 for concentrations for which Ti>/=Tz and [(Ti-Tz)/Tz] x 100 for concentrations for which Ti < Tz.
(§12) Three dose response parameters are calculated for each experimental agent. Growth […]
(§13) concentration resulting in a 50% reduction in the net protein increase (as measured by SRB staining) in control cells during the drug incubation. The drug concentration resulting in total growth inhibition (TGI) is calculated from Ti = Tz. […]
(§14) reduction in the measured protein at the end of the drug treatment as compared to that at the beginning) indicating a net loss of cells following treatment is calculated from [(Ti–Tz)/Tz] x 100 =
(§15) _50. Values are calculated for each of these three parameters if the level of activity is reached; […]

BT-549 = settings: Homo sapiens; BT-549, Breast cancer
Experimental: as §1, §2, §3, §4, §5, §6, §7, §8, §9, §10, §11, §12, §13, §14, §15

HCC-2998 = settings: Homo sapiens; HCC-2998, Colon cancer
Experimental: as §1, §2, §3, §4, §5, §6, §7, §8, §9, §10, §11, §12, §13, §14, §15

HCT-15 = settings: Homo sapiens; HCT-15, Colon cancer
Experimental: as §1, §2, §3, §4, §5, §6, §7, §8, §9, §10, §11, §12, §13, §14, §15

HOP-62 = settings: Homo sapiens; HOP-62, Non-small cell lung cancer
Experimental: as §1, §2, §3, §4, §5, §6, §7, §8, §9, §10, §11, §12, §13, §14, §15

HT29 = settings: Homo sapiens, HT-29; HT29, Colon cancer
Experimental: as §1, §2, §3, §4, §5, §6, §7, §8, §9, §10, §11, §12, §13, §14, §15

KM12 = settings: Homo sapiens; KM12, Colon cancer
Experimental: as §1, §2, §3, §4, §5, §6, §7, §8, §9, §10, §11, §12, §13, §14, §15

LOX IMVI = settings: Homo sapiens, Melanoma
Experimental: as §1, §2, §3, §4, §5, §6, §7, §8, §9, §10, §11, §12, §13, §14, §15

MALME-3M = settings: Homo sapiens, Melanoma
Experimental: as §1, §2, §3, §4, §5, §6, §7, §8, §9, §10, §11, §12, §13, §14, §15

MDA-MB-435 = settings: Homo sapiens; MDA-MB-435, Melanoma
Experimental: as §1, §2, §3, §4, §5, §6, §7, §8, §9, §10, §11, §12, §13, §14, §15

NCI-H226 = settings: Homo sapiens; NCI-H226, Non-small cell lung cancer
Experimental: as §1, §2, §3, §4, §5, §6, §7, §8, §9, §10, §11, §12, §13, §14, §15

NCI-H23 = settings: Homo sapiens; NCI-H23, Non-small cell lung cancer
Experimental: as §1, §2, §3, §4, §5, §6, §7, §8, §9, §10, §11, §12, §13, §14, §15

NCI-H460 = settings: Homo sapiens; NCI-H460, Non-small cell lung cancer
Experimental: as §1, §2, §3, §4, §5, §6, §7, §8, §9, §10, §11, §12, §13, §14, §15

OVCAR-4 = settings: Homo sapiens; OVCAR-4, Ovarian cancer
Experimental: as §1, §2, §3, §4, §5, §6, §7, §8, §9, §10, §11, §12, §13, §14, §15

OVCAR-8 = settings: Homo sapiens; OVCAR-8, Ovarian cancer
Experimental: as §1, §2, §3, §4, §5, §6, §7, §8, §9, §10, §11, §12, §13, §14, §15

PC-3 = settings: Homo sapiens; PC-3, Prostate cancer
Experimental: as §1, §2, §3, §4, §5, §6, §7, §8, §9, §10, §11, §12, §13, §14, §15

SF-295 = settings: Homo sapiens; SF-295, CNS cancer
Experimental: as §1, §2, §3, §4, §5, §6, §7, §8, §9, §10, §11, §12, §13, §14, §15

SK-OV-3 = settings: Homo sapiens; SK-OV-3, Ovarian cancer
Experimental: as §1, §2, §3, §4, §5, §6, §7, §8, §9, §10, §11, §12, §13, §14, §15

SN12C = settings: Homo sapiens, Renal cancer
Experimental: as §1, §2, §3, §4, §5, §6, §7, §8, §9, §10, §11, §12, §13, §14, §15

SNB-75 = settings: Homo sapiens; SNB-75, CNS cancer
Experimental: as §1, §2, §3, §4, §5, §6, §7, §8, §9, §10, §11, §12, §13, §14, §15

SW-620 = settings: Homo sapiens; SW-620, Colon cancer
Experimental: as §1, §2, §3, §4, §5, §6, §7, §8, §9, §10, §11, §12, §13, §14, §15

TK-10 = settings: Homo sapiens; TK-10, Renal cancer
Experimental: as §1, §2, §3, §4, §5, §6, §7, §8, §9, §10, §11, §12, §13, §14, §15

UACC-62 = settings: Homo sapiens; UACC-62, Melanoma
Experimental: as §1, §2, §3, §4, §5, §6, §7, §8, §9, §10, §11, §12, §13, §14, §15

SMILES | GI50 (786-0) | GI50 (BT-549) | GI50 (HCC-2998) | GI50 (HCT-15) | GI50 (HOP-62) | GI50 (HT29) | GI50 (KM12) | GI50 (LOX IMVI) | GI50 (MALME-3M) | GI50 (MDA-MB-435) | GI50 (NCI-H226) | GI50 (NCI-H23) | GI50 (NCI-H460) | GI50 (OVCAR-4) | GI50 (OVCAR-8) | GI50 (PC-3) | GI50 (SF-295) | GI50 (SK-OV-3) | GI50 (SN12C) | GI50 (SNB-75) | also measured
COC(=O)COc1ccc(C=NNC(=O)Cn2c(-c3ccc(OC)cc3)nc3cc(Cl)c(Cl)cc32)cc1 [Compound 10h, Methyl-2-(4-((2-(2-(5,6-dichloro-2-(4-methoxyphenyl)-1H-benzo[d]imidazol-1-yl)acetyl)hydrazono)methyl)phenoxy)acetate] | 3.01 µM | 25.6 µM | 13.1 µM | 11.2 µM | 17.3 µM | 1.79 µM | > 82.5 µM | 6.83 µM | 9.18 µM | 14.8 µM | > 82.5 µM | > 82.5 µM | > 82.5 µM | 17.2 µM | 2.93 µM | 4.45 µM | > 82.5 µM | 19.1 µM | 2.95 µM | 2.14 µM | GI50 (SW-620): 22.2 µM; GI50 (TK-10): 13.2 µM; GI50 (UACC-62): 10.1 µM
COC(=O)COc1cc(C=NNC(=O)Cn2c(-c3ccc(OC)cc3)nc3cc(Cl)c(Cl)cc32)ccc1OC [Compound 10o, Methyl-2-(5-((2-(2-(5,6-dichloro-2-(4-methoxyphenyl)-1H-benzo[d]imidazol-1-yl)acetyl)hydrazono)methyl)-2-methoxyphenoxy)acetate] | 17.9 µM | > 100 µM | 13.4 µM | > 100 µM | > 100 µM | 12.9 µM | > 100 µM | > 100 µM | > 100 µM | > 100 µM | > 100 µM | > 100 µM | > 100 µM | 20.5 µM | 8.68 µM | 17.2 µM | > 100 µM | 26 µM | 7.92 µM | 14.4 µM | GI50 (SW-620): > 100 µM; GI50 (TK-10): 18.3 µM; GI50 (UACC-62): 14.5 µM
COC(=O)COc1ccc(C=NNC(=O)Cn2c(-c3ccc(OC)cc3)nc3cc(Cl)c(Cl)cc32)cc1OC [Compound 10p, Methyl-2-(4-((2-(2-(5,6-dichloro-2-(4-methoxyphenyl)-1H-benzo[d]imidazol-1-yl)acetyl)hydrazono)methyl)-2-methoxyphenoxy)acetate] | 2.21 µM | > 72.5 µM | 11.7 µM | > 72.5 µM | > 72.5 µM | 1.46 µM | > 72.5 µM | 31.2 µM | > 72.5 µM | 22.9 µM | > 72.5 µM | > 72.5 µM | 26.1 µM | 23 µM | 2.54 µM | 4.38 µM | > 72.5 µM | 16 µM | 2.2 µM | 1.73 µM | GI50 (SW-620): > 72.5 µM; GI50 (TK-10): 12.6 µM; GI50 (UACC-62): 6.52 µM
